Measured values reported in ChEMBL document CHEMBL1201862, “PubChem BioAssay data set” (2004).
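All cell lines were grown in 96-well plates and treated with compound for 48 hours. Here, GI50 denotes the concentration required for 50% inhibition of growth.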 Active and inactive are the calls of the source. Cut-off read from the data, not from the text of the source: active = GI50 up to about 1.1 µM and inactive = higher.

Columns and labels:
Test in all cases: inhibition of tumour cell growth, NCI panel, 48 h
[1] = system: A549
[2] = system: NCI-H460
[3] = system: OVCAR-4
[4] = system: KM12
[5] = system: A498
[6] = system: 786-0
[7] = system: Malme-3M
[8] = system: HOP-62
[9] = system: NCI-H522
[10] = system: NCI-H226
[11] = system: HT-29
[12] = system: MOLT-4
[13] = system: SK-MEL-28
[14] = system: UACC-257
[15] = system: SK-MEL-2
[16] = system: HCT-15
[17] = system: RXF 393
[18] = system: LOX IMVI

SMILES	GI50 [1]	GI50 [2]	GI50 [3]	GI50 [4]	GI50 [5]	GI50 [6]	GI50 [7]	GI50 [8]	GI50 [9]	GI50 [10]	GI50 [11]	GI50 [12]	GI50 [13]	GI50 [14]	GI50 [15]	GI50 [16] [µM]	GI50 [17]	GI50 [18]
Cc1cccc(N2C(=O)/C(=C/c3ccc(N(CCC#N)CCC#N)cc3C)N=C2c2cc([N+](=O)[O-])ccc2Cl)c1	> 100 µM (inactive)	> 100 µM (inactive)	> 100 µM (inactive)	> 100 µM (inactive)	> 100 µM (inactive)	> 100 µM (inactive)	> 100 µM (inactive)	> 100 µM (inactive)	> 100 µM (inactive)	> 100 µM (inactive)	45.5 µM (inactive)	46.5 µM (inactive)	> 100 µM (inactive)	> 100 µM (inactive)	> 100 µM (inactive)	> 100	–	–
CC1(C)O/C(=C\c2ccccc2)C(=O)/C(=C/c2ccccc2)O1	23.3 µM (inactive)	59.6 µM (inactive)	56.6 µM (inactive)	53.8 µM (inactive)	> 100 µM (inactive)	37.8 µM (inactive)	38 µM (inactive)	74.8 µM (inactive)	3.4 µM (inactive)	17.7 µM (inactive)	29.4 µM (inactive)	14.7 µM (inactive)	50.4 µM (inactive)	22.5 µM (inactive)	18.4 µM (inactive)	–	13.9 µM (inactive)	28.6 µM (inactive)
CN(C)NC(=O)/C(=C/c1ccc(Cl)cc1)NC(=O)c1ccccc1	> 100 µM (inactive)	69.3 µM (inactive)	> 100 µM (inactive)	> 100 µM (inactive)	> 100 µM (inactive)	> 100 µM (inactive)	> 100 µM (inactive)	> 100 µM (inactive)	40.7 µM (inactive)	> 100 µM (inactive)	> 100 µM (inactive)	> 100 µM (inactive)	> 100 µM (inactive)	> 100 µM (inactive)	> 100 µM (inactive)	32	> 100 µM (inactive)	48.3 µM (inactive)
NCCCC(N/C=C1/N=C(c2ccccc2)OC1=O)C(=O)O (stereo not drawn)	> 100 µM (inactive)	> 100 µM (inactive)	> 100 µM (inactive)	–	> 100 µM (inactive)	> 100 µM (inactive)	> 100 µM (inactive)	> 100 µM (inactive)	40.8 µM (inactive)	> 100 µM (inactive)	> 100 µM (inactive)	> 100 µM (inactive)	> 100 µM (inactive)	> 100 µM (inactive)	> 100 µM (inactive)	> 100	> 100 µM (inactive)	> 100 µM (inactive)
CN1CC[C@]2(C)c3cc(O)ccc3CC3CCCC1C32C (stereo partly drawn)	> 100 µM (inactive)	> 100 µM (inactive)	–	> 100 µM (inactive)	> 100 µM (inactive)	> 100 µM (inactive)	> 100 µM (inactive)	> 100 µM (inactive)	> 100 µM (inactive)	> 100 µM (inactive)	> 100 µM (inactive)	> 100 µM (inactive)	> 100 µM (inactive)	> 100 µM (inactive)	–	> 100	> 100 µM (inactive)	> 100 µM (inactive)
COC(=O)C1=Cc2cc(OC)c(OC)cc2[C@H](c2ccc(OC)c(OC)c2)C1C(=O)OC (stereo partly drawn)	> 100 µM (inactive)	> 100 µM (inactive)	> 100 µM (inactive)	> 100 µM (inactive)	> 100 µM (inactive)	> 100 µM (inactive)	> 100 µM (inactive)	> 100 µM (inactive)	–	> 100 µM (inactive)	75.9 µM (inactive)	> 100 µM (inactive)	> 100 µM (inactive)	> 100 µM (inactive)	–	76	> 100 µM (inactive)	> 100 µM (inactive)
Cc1ccc2[nH]c3c4c5ccccc5nc-4c[nH]c3c2c1	17.2 µM (inactive)	15.3 µM (inactive)	22.1 µM (inactive)	15.6 µM (inactive)	–	17.1 µM (inactive)	19.1 µM (inactive)	10 µM (inactive)	21.5 µM (inactive)	16.1 µM (inactive)	11.6 µM (inactive)	16.2 µM (inactive)	17.7 µM (inactive)	18.1 µM (inactive)	18.9 µM (inactive)	–	13.8 µM (inactive)	17.2 µM (inactive)
CCOC(=O)C(=O)Nc1ccc([N+](=O)[O-])cc1C#N	> 100 µM (inactive)	> 100 µM (inactive)	> 100 µM (inactive)	> 100 µM (inactive)	–	> 100 µM (inactive)	> 100 µM (inactive)	> 100 µM (inactive)	> 100 µM (inactive)	> 100 µM (inactive)	> 100 µM (inactive)	> 100 µM (inactive)	> 100 µM (inactive)	> 100 µM (inactive)	> 100 µM (inactive)	> 100	> 100 µM (inactive)	> 100 µM (inactive)
